The supplement of paper PMC10307832

Key:
Assay in all cases: relative viability (nuclei count vs DMSO), 5 days (fraction); higher = more cells survive
[1] = compound: C1=CC2=NC=CN=C2C=C1/C=C/3\C(=O)NC(=O)S3 + CC(=O)Nc1cccc(-n2c(=O)n(C3CC3)c(=O)c3c(Nc4ccc(I)cc4F)n(C)c(=O)c(C)c32)c1 [Trametinib] (partner 0.02 µM)
Outline: (§1)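 Relative viability divides the nuclei count in treated wells by that in vehicle wells. Lung cancer cell lines were seeded in 1536-well plates, dosed by pin tool the next day, and fixed and stained after 5 days in one step with final 0.05% Triton X-100, 1% formaldehyde and 1 ug/ml Hoechst. Dosing was a single drug or a fixed anchor-drug dose plus five library-drug doses (not always all listed) in √10 steps, and values are medians of duplicate plates imaged at 4×.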

BGJ398 = compound: CCN1CCN(c2ccc(Nc3cc(N(C)C(=O)Nc4c(Cl)c(OC)cc(OC)c4Cl)ncn3)cc2)CC1 [BGJ398]
Outline: (§2)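 Viability is treated-well nuclei as a fraction of vehicle-well nuclei, reported as the median across plates. Before counting, lung cancer cell lines were kept overnight at 37 °C in 1536-well plates, pinned with five √10-spaced library-drug doses on vehicle-anchored plates, and left 5 days without medium change, then fixed, permeabilised and Hoechst-stained in one step, imaged at 4× and counted by MetaXpress. A plate passed only if control CV was below 25% and at least one doubling occurred.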

[2] = compound: C1=CC2=NC=CN=C2C=C1/C=C/3\C(=O)NC(=O)S3
Outline: as §2

BGJ398 + Navitoclax = compound: CCN1CCN(c2ccc(Nc3cc(N(C)C(=O)Nc4c(Cl)c(OC)cc(OC)c4Cl)ncn3)cc2)CC1 [BGJ398] + CC1(C)CCC(c2ccc(Cl)cc2)=C(CN2CCN(c3ccc(C(=O)NS(=O)(=O)c4ccc(N[C@H](CCN5CCOCC5)CSc5ccccc5)c(S(=O)(=O)C(F)(F)F)c4)cc3)CC2)C1 [Navitoclax] (partner 0.5 µM)
Outline: as §1

| Cell Line | relative viability ([1]; first compound 0.02 µM) | relative viability ([1]; first compound 0.06325 µM) | relative viability ([1]; first compound 0.2 µM) | relative viability ([1]; first compound 0.6325 µM) | relative viability ([1]; first compound 2 µM) | relative viability (BGJ398; 0.01 µM) | relative viability (BGJ398; 0.03162 µM) | relative viability (BGJ398; 0.1 µM) | relative viability (BGJ398; 0.3162 µM) | relative viability (BGJ398; 1 µM) | relative viability ([2]; 0.02 µM) | relative viability ([2]; 0.06325 µM) | relative viability ([2]; 0.2 µM) | relative viability ([2]; 0.6325 µM) | relative viability ([2]; 2 µM) | relative viability (BGJ398 + Navitoclax; first compound 0.01 µM) | relative viability (BGJ398 + Navitoclax; first compound 0.03162 µM) | relative viability (BGJ398 + Navitoclax; first compound 0.1 µM) | relative viability (BGJ398 + Navitoclax; first compound 0.3162 µM) | relative viability (BGJ398 + Navitoclax; first compound 1 µM) |
| --- | --- | --- | --- | --- | --- | --- | --- | --- | --- | --- | --- | --- | --- | --- | --- | --- | --- | --- | --- | --- |
| NCI-H2342 | 0.698 | 0.865 | 0.821 | 0.801 | 0.792 | 0.998 | 0.96 | 0.934 | 1.02 | 1.11 | 0.832 | 1.01 | 0.989 | 0.904 | 0.803 | – | – | – | – | – |
| SK-MES-1 | 0.509 | 0.564 | 0.643 | 0.566 | 0.503 | 0.941 | 1.05 | 1.05 | 0.981 | 1.01 | 0.971 | 1.08 | 1.02 | 0.984 | 0.875 | 1.27 | 1.32 | 1.24 | 1.33 | 1.24 |
| HCC-366 | 0.307 | – | 0.39 | 0.311 | 0.309 | 1.01 | 1.01 | 1.07 | 1.08 | 0.974 | 0.979 | 0.787 | 1.01 | 0.942 | 0.985 | 1.01 | 1.18 | 0.995 | 1.02 | 1.1 |
| 201T | 0.669 | 0.726 | 0.718 | 0.736 | 0.713 | 1.18 | 0.93 | 0.96 | 0.95 | 0.845 | 0.823 | 1.05 | 1.03 | 0.954 | 0.818 | 1.33 | 1.19 | 1.2 | 1.2 | 1.17 |
| HCC-827 | 0.611 | 0.35 | 0.505 | 0.456 | 0.544 | 0.932 | – | 1.01 | 0.962 | 1.04 | 0.989 | 0.984 | 1.02 | 1.04 | 1.05 | 0.935 | – | 1.03 | 1.02 | 1.02 |
| NCI-H647 | 0.459 | 0.52 | 0.545 | 0.444 | 0.389 | 0.869 | 1.07 | 1.03 | 0.867 | 0.799 | 0.959 | 1.13 | 1.08 | 0.84 | 0.938 | 0.97 | 1.26 | 1.4 | 1.14 | 1.01 |
| NCI-H2023 | 0.511 | 0.539 | 0.516 | 0.428 | 0.427 | 0.872 | 0.998 | 0.997 | 0.977 | 1.01 | 0.94 | 0.966 | 1.02 | 0.886 | 0.773 | 0.953 | 1.01 | 1.01 | 1.02 | 0.993 |
| NCI-H520 | 0.648 | 0.65 | 0.812 | 0.664 | 0.62 | 0.954 | 0.954 | 0.758 | 0.312 | 0.4 | 1.03 | 1.14 | 1.06 | 0.855 | 0.927 | 1.11 | 1.04 | 0.833 | 0.633 | 0.547 |
| RERF-LC-KJ | 0.815 | 0.878 | 0.88 | 0.738 | 0.62 | 1.04 | 1.05 | 1.06 | 0.987 | 1.05 | 0.908 | 1.02 | 1 | 0.948 | 0.841 | 0.98 | 1.09 | 0.901 | 1.06 | 0.936 |
| A-427 | 0.777 | 0.773 | 0.725 | 0.75 | 0.596 | 0.985 | 0.979 | 0.967 | 0.815 | 0.753 | 0.963 | 1.14 | 1.08 | 0.918 | 0.975 | 0.978 | 0.92 | 0.914 | 0.67 | 0.624 |
| NCI-H441 | 0.409 | 0.52 | 0.451 | 0.343 | 0.305 | 0.807 | 0.977 | 1.16 | 1.05 | 1.01 | 0.863 | 0.875 | 0.885 | 1.2 | 0.736 | 0.577 | 0.795 | 0.501 | 0.604 | 0.722 |
| NCI-H1703 | – | – | – | – | – | 0.872 | 1.04 | 1.02 | 0.806 | 0.967 | 1.09 | 1.33 | 0.942 | 0.864 | 0.736 | 0.823 | 1.39 | 0.989 | 1.14 | 0.964 |
| NCI-H1792 | 0.363 | – | 0.542 | 0.386 | 0.248 | 0.903 | 0.851 | 0.704 | 0.811 | 0.652 | 0.956 | 0.783 | 0.927 | 0.857 | 0.411 | 0.659 | 0.561 | 0.642 | 0.601 | 0.553 |
| Calu-6 | – | – | – | – | – | 0.986 | 0.988 | 1.05 | 1.02 | 1.02 | 0.971 | 1.04 | 1.03 | 0.989 | 1 | 0.794 | 0.838 | 0.796 | 0.788 | 0.795 |
